Test results reported in patent US8945594B2, “Vinylic mask with peel-off effect for topical use containing high concentrations of retinoic acid” (Laboratori Farmaceutici Krymi S.p.A., priority 2010, dated 2015).

Key:
[1] = Ex vivo determination of skin-accumulated amount of tretinoin contained in the polyvinylic mask; assay type: in vitro ADME, human; settings: polyvinylic mask 2.5% Trans-Retinoic acid Lot P10044, n = 3, average ± s.d.
Method: Assessing the Absence of Skin Permeation of Retinoic Acid During the Application Period by Ex Vivo Determination of Skin-Accumulated Amount of the Tretinoin Contained in the Polyvinylic Mask
An ex vivo study of the skin-accumulated amount of retinoic acid contained in the polyvinylic mask was conducted at the Department of Pharmaceutical Sciences of the University of Milan. The aim of the work was the assessment of the barrier effect by polyvinyl alcohol toward the percutaneous absorption of Trans-Retinoic acid under standard conditions of use of the mask. A sample of polyvinylic mask containing 2.5% Trans-Retinoic acid (Lot n° P10044) was subjected to the test. The membrane was prepared by using skin of human origin, which is the most appropriate for foreseeing in vivo absorption. As it is known that the skin barrier against permeation of exogenous substances by passive diffusion mainly consists of the corneal layer, absorption was assessed by using as membrane the […] (SCE) obtained by mechanical separation of the derm from the skin.
The difference in the amounts of tretinoin accumulated in the membranes over the two exposure times, reported in the following table 1, is not significant; therefore, it is evident how the barrier formed by polyvinyl alcohol interferes, by inhibiting percutaneous absorption of Trans-Retinoic acid and therefore its undesired systemic effects, which instead are present in products lacking said barrier and containing it.

[2] = cited from earlier work

## CC1=C(/C=C/C(C)=C/C=C/C(C)=C/C(=O)O)C(C)(C)CCC1 [Tretinoin, retinoic acid]
[1]; exposure time 30 min
  Amount of SCE-accumulated tretinoin: 1.32 ± 1.01 μg/cm^2
  Amount of SCE-accumulated tretinoin, % w/w with respect to the amount applied: 1.15 ± 0.84 % w/w
[1]; exposure time 60 min
  Amount of SCE-accumulated tretinoin: 1.63 ± 0.23 μg/cm^2
  Amount of SCE-accumulated tretinoin, % w/w with respect to the amount applied: 1.38 ± 0.12 % w/w
[2]
  solubility in dichloromethane: soluble in dichloromethane
  solubility in ethanol: scarcely soluble in ethanol
  solubility in ether: moderately soluble in ether
  solubility in water: practically insoluble in water
